Assay results reported in PubChem BioAssay (NCI).
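How tested: cells in 96-well plates exposed to compound for 48 hours at five concentrations. At the GI50, growth is halved. TGI: concentration producing complete growth inhibition.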

Experiments:
Experiment in all cases: growth of human tumour cells (NCI), 48 h
NCI-H226 lung = test system: NCI-H226 lung
NCI-H23 lung = test system: NCI-H23 lung
NCI-H460 lung = test system: NCI-H460 lung
NCI-H522 lung = test system: NCI-H522 lung
NCI/ADR-RES ovarian = test system: NCI/ADR-RES ovarian
OVCAR-3 ovarian = test system: OVCAR-3 ovarian
OVCAR-5 ovarian = test system: OVCAR-5 ovarian
PC-3 prostate = test system: PC-3 prostate
RPMI-8226 leukemia = test system: RPMI-8226 leukemia
RXF 393 renal = test system: RXF 393 renal
SF-268 CNS = test system: SF-268 CNS
SF-295 CNS = test system: SF-295 CNS
SF-539 CNS = test system: SF-539 CNS
SK-MEL-2 melanoma = test system: SK-MEL-2 melanoma
SK-MEL-28 melanoma = test system: SK-MEL-28 melanoma
SK-MEL-5 melanoma = test system: SK-MEL-5 melanoma
SK-OV-3 ovarian = test system: SK-OV-3 ovarian
SN12C renal = test system: SN12C renal
SNB-19 CNS = test system: SNB-19 CNS
SNB-75 CNS = test system: SNB-75 CNS
SW-620 colon = test system: SW-620 colon
T-47D breast = test system: T-47D breast
TK-10 renal = test system: TK-10 renal
U251 CNS = test system: U251 CNS
UACC-257 melanoma = test system: UACC-257 melanoma
UACC-62 melanoma = test system: UACC-62 melanoma
UO-31 renal = test system: UO-31 renal

In the case of Cc1ccc(C2CC(c3ccc(S(=O)(=O)NCCNc4nc(Nc5ccc(F)cc5)nc(N(C)C)n4)cc3)=Nc3c(N)nc(N)nc3N2)cc1 (centres undefined), the GI50 (NCI-H226 lung) is reported as greater than 100 µM, the TGI (NCI-H226 lung) is reported as greater than 100 µM and the GI50 (NCI-H23 lung) is reported as 78.8 µM. For the same compound, the TGI (NCI-H23 lung) was greater than 100 µM, the GI50 (NCI-H460 lung) was 4.76 µM and the TGI (NCI-H460 lung) was greater than 100 µM. For the same compound, the GI50 (NCI-H522 lung) was 21.3 µM, the TGI (NCI-H522 lung) was greater than 100 µM and the GI50 (NCI/ADR-RES ovarian) was greater than 100 µM. The TGI (NCI/ADR-RES ovarian) was greater than 100 µM, the GI50 (OVCAR-3 ovarian) was 9.93 µM and the TGI (OVCAR-3 ovarian) was greater than 100 µM. For the same compound, the GI50 (OVCAR-5 ovarian) was greater than 100 µM, the TGI (OVCAR-5 ovarian) was greater than 100 µM and the GI50 (PC-3 prostate) was 3.33 µM. It also gave a TGI (PC-3 prostate) greater than 100 µM, a GI50 (RPMI-8226 leukemia) of 2.94 µM and a TGI (RPMI-8226 leukemia) greater than 100 µM. The GI50 (RXF 393 renal) was 2.27 µM, the TGI (RXF 393 renal) was 9.12 µM and the GI50 (SF-268 CNS) was 7.53 µM. For the same compound, the TGI (SF-268 CNS) was greater than 100 µM, the GI50 (SF-295 CNS) was 6.6 µM and the TGI (SF-295 CNS) was greater than 100 µM. The GI50 (SF-539 CNS) was 3.29 µM, the TGI (SF-539 CNS) was 78.9 µM and the GI50 (SK-MEL-2 melanoma) was 11.2 µM. The TGI (SK-MEL-2 melanoma) was 77.7 µM, the GI50 (SK-MEL-28 melanoma) was 26.9 µM and the TGI (SK-MEL-28 melanoma) was greater than 100 µM. The GI50 (SK-MEL-5 melanoma) was 4.98 µM, the TGI (SK-MEL-5 melanoma) was 20.6 µM and the GI50 (SK-OV-3 ovarian) was greater than 100 µM. It also gave a TGI (SK-OV-3 ovarian) greater than 100 µM, a GI50 (SN12C renal) greater than 100 µM and a TGI (SN12C renal) greater than 100 µM. For the same compound, the GI50 (SNB-19 CNS) was 13.1 µM, the TGI (SNB-19 CNS) was greater than 100 µM and the GI50 (SNB-75 CNS) was greater than 100 µM. For the same compound, the TGI (SNB-75 CNS) was greater than 100 µM, the GI50 (SW-620 colon) was 8.04 µM and the TGI (SW-620 colon) was greater than 100 µM. The GI50 (T-47D breast) was 8.75 µM, the TGI (T-47D breast) was greater than 100 µM and the GI50 (TK-10 renal) was greater than 100 µM. The TGI (TK-10 renal) was greater than 100 µM, the GI50 (U251 CNS) was 7.08 µM and the TGI (U251 CNS) was greater than 100 µM. For the same compound, the GI50 (UACC-257 melanoma) was 26 µM, the TGI (UACC-257 melanoma) was greater than 100 µM and the GI50 (UACC-62 melanoma) was 20.9 µM. It also gave a TGI (UACC-62 melanoma) greater than 100 µM, a GI50 (UO-31 renal) greater than 100 µM and a TGI (UO-31 renal) greater than 100 µM.
